Measured values from US7378532B2, “Fused pyrazolyl compound” (Yung Shin Pharmaceutical Ind. Co., Ltd., priority 2004, dated 2008).

Experiments:
[1] = test system: Human lung cancer cells, NCI-H226; experiment: Inhibition of cancer cell growth (sulforhodamine B assay); format: cell-based; settings: human lung cancer cells NCI-H226, 48 hr incubation, eight concentrations, SRB stain, absorbance 515 nm
Protocol: Human lung cancer cells, NCI-H226, were placed in 96-well microtiter plates (5,000 cells/100 μl/well). The plates were incubated at 37° C. under 5% CO2 and 95% air and 100% relative humidity for 24 hr. Cells in one plate were fixed in situ with trichloroacetic acid (TCA) to measure the cell population.
Compound 1 was dissolved in dimethylsulfoxide (DMSO) to give a solution at 400-fold the desired final maximum test concentration and stored frozen. An aliquot of the frozen DMSO solution was thawed and diluted to twice the desired final maximum test concentration. Additional ½ log serial dilutions were made to provide a total of eight concentrations. 100 μl aliquots of these different dilutions were added to the microtiter wells, resulting in the required final drug concentrations. After Compound 1 was added, the plates were incubated at 37° C. under 5% CO2 and 95% air and 100% relative humidity for an additional 48 hr. The cells were fixed in situ by slow addition of 50 μl of cold 50% (w/v) TCA and incubated at 4° C. for 60 minutes. The supernatant was removed, and the plates were gently washed twice with water and air-dried. […] The bound stain was subsequently solubilized with 10 mM trizma base, and absorbance was measured by an automated plate reader at the wavelength of 515 nm.

Row | Structure (SMILES) | melting point [°C] | inhibition of growth of NCI-H226 [1]
1 | O=C(O)CCC(=O)OCc1ccc(-c2nn(-c3ccc(Br)cc3)c3ccccc23)o1 [Compound 12, succinic acid mono-[5-(1-(4-bromo-phenyl)-1H-indazol-3-yl)-furan-2-ylmethyl]ester] | 111 to 112.7 | 
2 | Cc1cc2c(o1)c(-c1ccc(COC(=O)CCC(=O)O)o1)nn2Cc1ccccc1 [Compound 7, succinic acid mono-[5-(1-benzyl-5-methyl-1H-furo[3,2-C]pyrazol-3-yl)-furan-2-ylmethyl]ester] | 126.3 to 129 | 
3 | O=C(O)CCC(=O)OCc1ccc(-c2nn(Cc3ccccc3)c3ccccc23)o1 [Compound 1, succinic acid mono-[5-(1-benzyl-1H-indazol-3-yl)-furan-2-ylmethyl]ester] |  | effectively inhibited growth of NCI—H226
